Data reported in article doi:10.1101/2024.01.22.576576v1, “Phenotypic screening of covalent compound libraries identifies chloromethyl ketone antibiotics and MiaA as a new target” (biorxiv, 2024).
In brackets after ≈: the same amount, converted by molar mass. Where two headings read alike, the source gives them in different places.

Legend:
[1] = tested on: S. flexneri M90T; assay: microbe, parasite or virus in culture; settings: Shigella flexneri, read-out: MIC SF
Procedure: (§1) MIC measurement. The minimum inhibitory concentrations (MICs) of compounds were measured using the broth microdilution method.1 One stab using 10 µL tip from bacteria glycerol stock was inoculated into 5 mL of LB supplemented with selection antibiotics (Kanamycin for Keio collections and chloramphenicol for ASKA collections), and the culture was incubated at 37 °C with shaking overnight. […] The plate was incubated at 37 °C for 16 ~ 20 h with shaking at 80 rpm and the OD600 was measured using Cytation 5 plate reader (BioTek). MIC was determined as the lowest concentration for which no bacterial growth was observed. LB was used as the growth media for all the bacteria strains unless otherwise mentioned. For S. aureus and A. baumannii strains, tryptic soy broth (TSB, BD, DF0370-17-3) was used as the growth media instead of LB. For P. aeruginosa and K. pneumoniae strains, nutrient broth (NB, RPI, N15100) was used as growth media. All MIC measurements were performed in at least biological duplicates.

[2] = tested on: T1, E. coli JPN15; assay: microbe, parasite or virus in culture; set-up: species or system bacterial strain; broth microdilution MIC, OD600, lowest concentration without visible bacterial growth; settings: Escherichia coli, JPN15, read-out: MIC EC
T1 construct: JPN15 (EPEC)
Procedure: as §1

[3] = tested on: T2, S. aureus MSSA476; assay: microbe, parasite or virus in culture; set-up: species or system bacterial strain; broth microdilution MIC, OD600, lowest concentration without visible bacterial growth; settings: Staphylococcus aureus, MSSA476, read-out: MIC SA
T2 construct: MSSA476
Procedure: as §1

[4] = tested on: T3, V. cholerae SAD30; assay: microbe, parasite or virus in culture; set-up: species or system bacterial strain; broth microdilution MIC, OD600, lowest concentration without visible bacterial growth; settings: Vibrio cholerae, SAD30, read-out: MIC VC
T3 construct: SAD30
Procedure: as §1

[5] = biological target: T4, Sf_PdxY (Shigella flexneri, UniProt Q83KY1); assay: in-gel fluorescence competition with 5-TMRIA; assay type: binding; settings: covalent; 1 h preincubation
T4 construct: gene pdxY; recombinant, purified from E. coli BL21; also native protein in live S. flexneri M90T (ABPP row)
T4 sequence (Q83KY1 1-287): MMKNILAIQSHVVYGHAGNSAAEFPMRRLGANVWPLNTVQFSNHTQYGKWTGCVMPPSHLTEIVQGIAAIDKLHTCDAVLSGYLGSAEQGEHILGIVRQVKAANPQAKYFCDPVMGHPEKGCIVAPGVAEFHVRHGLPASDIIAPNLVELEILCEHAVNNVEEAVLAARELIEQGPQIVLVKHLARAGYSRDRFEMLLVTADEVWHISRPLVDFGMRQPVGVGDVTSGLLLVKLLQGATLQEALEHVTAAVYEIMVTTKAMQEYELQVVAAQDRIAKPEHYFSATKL

[6] = biological target: T5, Sf_FabH (Shigella flexneri, UniProt Q83RS8); assay: in-gel fluorescence competition with 5-TMRIA; assay type: binding; settings: covalent; 1 h preincubation
T5 construct: gene fabH; recombinant, purified from E. coli BL21; also native protein in live S. flexneri M90T (ABPP rows)
T5 sequence (Q83RS8 1-317): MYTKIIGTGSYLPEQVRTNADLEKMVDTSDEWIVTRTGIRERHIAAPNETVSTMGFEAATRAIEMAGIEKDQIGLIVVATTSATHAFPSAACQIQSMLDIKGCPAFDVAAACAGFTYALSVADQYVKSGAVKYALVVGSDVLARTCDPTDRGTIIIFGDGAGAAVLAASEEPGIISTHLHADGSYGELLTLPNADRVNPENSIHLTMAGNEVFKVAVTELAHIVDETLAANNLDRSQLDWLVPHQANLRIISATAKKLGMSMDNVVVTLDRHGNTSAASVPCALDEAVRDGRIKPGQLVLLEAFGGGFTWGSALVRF

[7] = biological target: T6, Sf_MiaA (Shigella flexneri, UniProt P59197); assay: i6A-37 tRNA formation followed by LC-MS after preincubation; assay type: biochemical; settings: covalent; Cys273; tRNA-Trp 34-mer substrate
T6 construct: gene miaA; recombinant, purified from E. coli BL21; two cysteines in total; also native protein in live S. flexneri M90T (ABPP row)
T6 sequence (P59197 1-316): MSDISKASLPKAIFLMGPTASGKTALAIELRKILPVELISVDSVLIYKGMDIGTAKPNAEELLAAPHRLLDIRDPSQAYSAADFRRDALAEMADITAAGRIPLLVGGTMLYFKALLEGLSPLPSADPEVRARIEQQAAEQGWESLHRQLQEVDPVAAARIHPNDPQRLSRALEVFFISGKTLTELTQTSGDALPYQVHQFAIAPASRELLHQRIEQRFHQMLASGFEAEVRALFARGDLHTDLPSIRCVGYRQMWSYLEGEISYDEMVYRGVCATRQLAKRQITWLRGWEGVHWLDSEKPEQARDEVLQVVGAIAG
Procedure: i6A-37 tRNA formation followed by LC-MS after preincubation on Sf_MiaA | preincubation of 10-F05 with MiaA decreased the initial velocity of modified tRNA forming rate

[8] = biological target: T7, Sa_FabH (Staphylococcus aureus, UniProt Q6GAU3); assay: in-gel fluorescence competition with 5-TMRIA; assay type: binding; settings: covalent
T7 construct: gene fabH; purified protein
T7 sequence (Q6GAU3 1-313): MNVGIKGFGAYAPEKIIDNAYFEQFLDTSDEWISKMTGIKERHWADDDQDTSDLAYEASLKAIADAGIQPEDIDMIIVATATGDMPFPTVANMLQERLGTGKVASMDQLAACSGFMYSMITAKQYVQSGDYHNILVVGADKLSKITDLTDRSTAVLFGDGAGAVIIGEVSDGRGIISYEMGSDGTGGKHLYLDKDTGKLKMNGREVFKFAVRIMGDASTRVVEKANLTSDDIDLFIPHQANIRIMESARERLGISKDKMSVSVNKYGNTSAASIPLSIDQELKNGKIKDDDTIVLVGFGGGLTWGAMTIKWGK

[9] = biological target: T6, Sf_MiaA; assay: in-gel fluorescence competition with 5-TMRIA; assay type: binding; settings: covalent; Cys273; 1 h preincubation
[10] = tested on: T8, A. baumannii BAA-1790; assay: microbe, parasite or virus in culture; set-up: species or system bacterial strain; broth microdilution MIC, OD600, lowest concentration without visible bacterial growth; settings: Acinetobacter baumannii, BAA1790, read-out: 10-F05 MIC µM
T8 construct: BAA-1790
Procedure: as §1

[11] = tested on: T9, E. cloacae 13047; assay: microbe, parasite or virus in culture; set-up: species or system bacterial strain; broth microdilution MIC, OD600, lowest concentration without visible bacterial growth; settings: Enterobacter cloacae, 13047, read-out: 10-F05 MIC µM
T9 construct: 13047
Procedure: as §1

[12] = tested on: T10, E. coli (KPC+) BAA-2340; assay: microbe, parasite or virus in culture; set-up: species or system bacterial strain; broth microdilution MIC, OD600, lowest concentration without visible bacterial growth; settings: Escherichia coli, BAA2340, read-out: 10-F05 MIC µM
T10 construct: BAA-2340 (KPC+)
Procedure: as §1

[13] = tested on: T11, K. pneumoniae 13883; assay: microbe, parasite or virus in culture; set-up: species or system bacterial strain; broth microdilution MIC, OD600, lowest concentration without visible bacterial growth; settings: Klebsiella pneumoniae, 13883, read-out: 10-F05 MIC µM
T11 construct: 13883
Procedure: as §1

[14] = tested on: T12, K. pneumoniae 700603; assay: microbe, parasite or virus in culture; set-up: species or system bacterial strain; broth microdilution MIC, OD600, lowest concentration without visible bacterial growth; settings: Klebsiella pneumoniae, 700603, read-out: 10-F05 MIC µM
T12 construct: 700603
Procedure: as §1

[15] = tested on: T13, P. aeruginosa BAA-2110; assay: microbe, parasite or virus in culture; set-up: species or system bacterial strain; broth microdilution MIC, OD600, lowest concentration without visible bacterial growth; settings: Pseudomonas aeruginosa, BAA2110, read-out: 10-F05 MIC µM
T13 construct: BAA-2110
Procedure: as §1

[16] = tested on: T14, S. flexneri M90T; assay: microbe, parasite or virus in culture; set-up: species or system bacterial strain; broth microdilution MIC, OD600, lowest concentration without visible bacterial growth; settings: Shigella flexneri, read-out: MIC SF
T14 construct: M90T
Procedure: as §1

Row | SMILES | MIC [1] [µM] | MIC [2] [µM] | MIC [3] [µM] | MIC [4] [µM] | MIC [16] [µM] | other results
1 | CC(=O)c1cn(-c2ccc(F)cc2)nn1 [10-F05-N] | > 100 | > 100 | > 100 | > 100 |  | 
2 | O=C(CCl)c1cn(-c2ccc(F)cc2)nn1 [10-F05] |  | 25 (≈ 5.99 µg/mL) | 10 (≈ 2.4 µg/mL) | 10 (≈ 2.4 µg/mL) | 2.5 (≈ 0.599 µg/mL) | in-gel fluorescence competition with 5-TMRIA [5]: preincubation of 10-F05 decreased the 5-TMRIA labeling in a dose-dependent manner (Figure 5A); in-gel fluorescence competition with 5-TMRIA [6]: rapid covalent bond formation between 10-F05 and Sf_FabH (Figure 5B); fold decrease in initial velocity [7]: 1.7 fold; in-gel fluorescence competition with 5-TMRIA [8]: 10-F05 was able to bind with S. aureus FabH (Sa_FabH, Figure 5C); in-gel fluorescence competition with 5-TMRIA [9]: indicating 10-F05 specifically reacts with MiaA Cys273; MIC [10]: > 100 µM; MIC [11]: 50 µM (≈ 12 µg/mL); MIC [12]: 50 µM (≈ 12 µg/mL); MIC [13]: 50 µM (≈ 12 µg/mL); MIC [14]: > 100 µM; MIC [15]: > 100 µM
3 | CC(=O)c1ccccn1 [10-J03-N] | > 100 | > 100 | > 100 | > 100 |  | 
4 | Cn1cc(C(=O)CCl)nn1 [10-M19] |  | 50 (≈ 7.98 µg/mL) | 100 (≈ 16 µg/mL) | 50 (≈ 7.98 µg/mL) | 50 (≈ 7.98 µg/mL) | 
5 | O=C(CCl)c1cn(-c2cccc(C(F)(F)F)c2)nn1 [10-C09] |  | 100 (≈ 29 µg/mL) | 25 (≈ 7.24 µg/mL) | 100 (≈ 29 µg/mL) | 25 (≈ 7.24 µg/mL) | 
6 | CC(=O)c1cn(-c2cccc(C)c2)nn1 [10-L07-N] | > 100 | > 100 | > 100 | > 100 |  | 
7 | CC(=O)c1cnccc1F [10-I09-N] | > 100 | > 100 | > 100 | > 100 |  | 
8 | Cc1cccc(-n2cc(C(=O)CCl)nn2)c1 [10-L07] |  | 50 (≈ 11.8 µg/mL) | 10 (≈ 2.36 µg/mL) | 25 (≈ 5.89 µg/mL) | 5 (≈ 1.18 µg/mL) | 
